Experimental findings from patent US20240376073A1 (Hoffmann-La Roche Inc., priority 2021, published 2024) are described below.

As usually defined, the IC90 is the point of the concentration-response curve where the effect stands at 90%.

Where a name gives a salt, the structure may show the parent alone.

One test relates to Acinetobacter baumannii ATCC17961. The experiment in a line: Antimicrobial susceptibility testing: 90% growth inhibitory concentration (IC90) determination. The class given is cell-based. The note with it: Acinetobacter baumannii ATCC17961; Iso-Sensitest broth; growth by OD 600 nm over 16 h; 35±2° C.; read-out: ATCC 17961 IC90. Summed up: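 Twofold serial dilutions (e.g. 50 to 0.097 μM final) in Iso-Sensitest broth, inoculated at ~5×10^(5) CFU/ml, incubated at 35±2° C. OD600 read every 20 min over 16 h; IC90 derived from growth inhibition during logarithmic growth.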
Regarding `Cn1c(-c2ccc(OC(F)F)c(F)c2Cl)cnc1C(=O)Nc1ccc(C(=O)N2CCN(C(=O)C3CC[N+](C)(CCN)CC3)CC2)c(Cl)c1` (stereo not shown) [Example C12, N-[4-[4-[1-(2-aminoethyl)-1-methyl-piperidin-1-ium-4-carbon-yl]piperazine-1-carbonyl]-3-chloro-phenyl]-5-[2-chloro-4-(difluorometh-oxy)-3-fluoro-phenyl]-1-methyl-imidazole-2-carboxamide; formic acid; formate], the IC90 came to 43 nM.

Consider `Cn1c(-c2ccc(OCC#N)c(F)c2F)cnc1C(=O)Nc1ccc(C(=O)N2CCN(C(=O)[C@@H]3C[C@](C)(O)C[N+]3(C)C)CC2)c(Cl)c1` [Example B27, (2S,4S)-2-(4-(2-chloro-4-(5-(4-(cyanomethoxy)-2,3-difluorophenyl)-1-methyl-1H-imidazole-2-carboxamido)benzoyl)piperazine-1-carbonyl)-4-hydroxy-1,1,4-trimethylpyrrolidin-1-ium formate], for which the IC90 is 170 nM. The same measure, in the same setting: as for `COc1ccc(-c2cnc(C(=O)Nc3ccc(C(=O)NCc4cnc(NC(=O)C5CCC[N+]5(C)C)s4)c(Cl)c3)n2C)c(F)c1F` (stereo not shown) [Example A28, N-[3-chloro-4-[2-[(1,1-dimethylpyrrolidin-1-ium-2-carbonyl)amino]thiazol-5-yl]methylcarbamoyl]phenyl]-5-(2,3-difluoro-4-methoxy-phenyl)-1-methyl-imidazole-2-carboxamide; formate], the figure is 88 nM; as for `COc1ccc(-c2cnc(C(=O)Nc3ccc(C(=O)N4CCN(C(=O)C5CC[N+](C)(C)CC5O)CC4)c(Cl)c3)n2C)c(F)c1F` (stereo not shown) [Example B33, N-[3-chloro-4-[4-(3-hydroxy-1,1-dimethyl-piperidin-1-ium-4-carbonyl)piperazine-1-carbonyl]phenyl]-5-(2,3-difluoro-4-methoxy-phenyl)-1-methyl-imidazole-2-carboxamide; formate], 130 nM; as for `COc1ccc(-c2cnc(C(=O)Nc3ccc(C(=O)N[C@H]4[C@@H]5CN(C(=O)[C@@H]6C[C@@H](O)C[N+]6(C)C)C[C@@H]54)c(Cl)c3)n2C)c(F)c1F` [Example B54, N-[3-chloro-4-[(exo)-3-[(2 S,4R)-4-hydroxy-1,1-dimethyl-pyrrolidin-1-ium-2-carbonyl]-3-azabicyclo[3.1.01 hexan-6-yl]carbamoyl]phenyl]-5-(2,3-difluoro-4-methoxy-phenyl)-1-methyl-imidazole-2-carboxamide formate], 350 nM.

As for `COc1ccc(-c2cnc(C(=O)Nc3ccc(C(=O)NCCCCC[N+](C)(C)C)c(Cl)c3)n2C)c(F)c1F` [Example A2, 5-[[2-Chloro-4-[[5-(2,3-difluoro-4-methoxy-phenyl)-1-methyl-imidazole-2-carbonyl]amino]benzoyl]amino]pentyl-trimethyl-ammonium;formate], the IC90 came to 340 nM.

Turning to `Cn1c(-c2ccc(OCF)cc2F)cnc1C(=O)Nc1ccc(C(=O)N2CCN(C(=O)C[N+](C)(C)C)CC2)c(Cl)c1` [Example B22, [2-[4-[2-chloro-4-[5-[2-fluoro-4-(fluoromethoxy)phenyl]-1-methyl-imidazole-2-carbonyl]amino]benzoyl]piperazin-1-yl]-2-oxo-ethyl]-trimethyl-ammonium; formate], the IC90 stood at 170 nM. On the same count and under the same terms, to `Cn1c(-c2ccc(OCC#N)c(F)c2F)cnc1C(=O)Nc1ccc(C(=O)NCCOCC[N+](C)(C)C)c(Cl)c1` [Example A15, 2-[2-[[2-chloro-4-[[5-[4-(cyanomethoxy)-2,3-difluoro-phenyl]-1-methyl-imidazole-2-carbonyl]amino]benzoyl]amino]ethoxy]ethyl-trimethyl-ammonium formate] belongs 770 nM; to `Cn1c(-c2ccc(OC(F)F)c(Cl)c2F)cnc1C(=O)Nc1ccc(C(=O)N2CCN(C(=O)[C@@H]3C[C@@H](O)C[N+]3(C)C)CC2)c(Cl)c1` [Example B47, 5-[3-chloro-4-(difluoromethoxy)-2-fluoro-phenyl]-N-[3-chloro-4-[4-[(2S,4R)-4-hydroxy-1,1-dimethyl-pyrrolidin-1-ium-2-carbonyl]piperazine-1-carbonyl]phenyl]-1-methyl-imidazole-2-carboxamide; iodide], 39 nM; to `COc1ccc(-c2cnc(C(=O)Nc3ccc(C(=O)N4CCN(C(=O)C5CN(C(=O)C[N+](C)(C)C)C5)CC4)c(Cl)c3)n2C)c(F)c1F` [Example B16, [2-[3-[4-[2-chloro-4-[[5-(2,3-difluoro-4-methoxy-phenyl)-1-methyl-imidazole-2-carbonyl]amino]benzoyl]piperazine-1-carbonyl]azetidin-1yl]-2-oxo-ethyl]-trimethyl-ammonium; formate], 230 nM. In the case of `Cn1c(-c2ccc(OCC#N)c(F)c2F)cnc1C(=O)Nc1ccc(C(=O)NCCCNC(=O)C[N+](C)(C)C)c(Cl)c1` [Example A12, [2-[3-[[2-chloro-4-[[5-[4-(cyanomethoxy)-2,3-difluoro-phenyl]-1-methyl-imidazole-2-carbonyl]amino]benzoyl]amino]propylamino]-2-oxo-ethyl]-trimethyl-ammonium formate], the IC90 worked out at 350 nM.

As to `Cn1c(-c2ccc(OC(F)F)cc2F)cnc1C(=O)Nc1ccc(C(=O)N2CCN(C(=O)C[N+](C)(C)C)CC2)c(Cl)c1` [Example B11, [2-[4-[2-chloro-4-[5-[4-(difluoromethoxy)-2-fluoro-phenyl]-1-methyl-imidazole-2-carbonyl]amino]benzoyl]piperazin-1-yl]-2-oxo-ethyl]-trimethyl-ammonium; formate], the IC90 was 150 nM. Turning to `Cn1c(-c2ccc(OCC#N)c(F)c2F)cnc1C(=O)Nc1ccc(C(=O)N[C@H]2C[C@@H](NC(=O)C[N+](C)(C)C)C2)c(Cl)c1` [Example A16, [2-[[3-[2-chloro-4-[[5-[4-(cyanomethoxy)-2,3-difluoro-phenyl]-1-methyl-imidazole-2-carbonyl]amino]benzoyl]amino]cyclobutyl]amino]-2-oxo-ethyl]-trimethyl-ammonium formate], the IC90 came out at 88 nM. Take `CCc1cc(NC(=O)c2ncc(-c3ccc(OC(F)F)c(F)c3F)n2C)ccc1C(=O)N1CCN(C(=O)C2CC[N+](C)(CC3CNC3)CC2)CC1` (stereo not shown) [Example C19]: the IC90 was 270 nM.

In the case of `COc1ccc(-c2cnc(C(=O)Nc3ccc(C(=O)N4CCC(CC[N+](C)(C)C)CC4)c(Cl)c3)n2C)c(F)c1F` [Example A1, 2-[1-[2-Chloro-4-[[5-(2,3-difluoro-4-methoxy-phenyl)-1-methyl-imidazole-2-carbonyl]amino]benzoyl]-4-piperidyl]ethyl-trimethyl-ammonium;formate], the IC90 is 79 nM.

`COc1ccc(-c2cnc(C(=O)Nc3ccc(C(=O)N4CCN(C(=O)C5CC[N+](C)(CC(N)=O)CC5)CC4)c(Cl)c3)n2C)c(F)c1F` (stereo not shown) [Example C5, N-[4-[4-[1-(2-amino-2-oxo-ethyl)-1-methyl-piperidin-1-ium-4-carbonyl]-piperazine-1-carbonyl]-3-chloro-phenyl]-5-(2,3-difluoro-4-methoxy-phenyl)-1-meth-yl-imidazole-2-carboxamide; formate]: the 90% effect concentration (IC90) worked out at 73 nM. Same read-out and setting: to `COc1ccc(-c2cnc(C(=O)Nc3ccc(C(=O)NCc4cn(CCCO)[n+](C)c4)c(Cl)c3)n2C)c(F)c1F` [Example A21, N-[3-chloro-4-[1-(3-hydroxypropyl)-2-methyl-pyrazol-2-ium-4-yl]methylcarbamoyl]phenyl]-5-(2,3-difluoro-4-methoxy-phenyl)-1-methyl-imidazole-2-carboxamide; formate] belongs 330 nM; to `COc1ccc(-c2cnc(C(=O)Nc3ccc(C(=O)NCc4cn(CC(N)=O)[n+](C)c4)c(Cl)c3)n2C)c(F)c1F` [Example A23, N-[4-[1-(2-amino-2-oxo-ethyl)-2-methyl-pyrazol-2-ium-4-yl]methylcarbamoyl]-3-chloro-phenyl]-5-(2,3-difluoro-4-methoxy-phenyl)-1-methyl-imidazole-2-carboxamide; formate], 400 nM. Take `Cc1cc(NC(=O)c2ncc(-c3ccc(OCC#N)c(F)c3F)n2C)ccc1C(=O)N1CCN(C(=O)C2(O)CC[N+](C)(C)CC2)CC1` [Example B26, 4-(4-(4-(5-(4-(cyanomethoxy)-2,3-difluorophenyl)-1-methyl-1H-imidazole-2-carboxamido)-2-methylbenzoyl)piperazine-1-carbonyl)-4-hydroxy-1,1-dimethylpiperidin-1-ium formate]: the IC90 was 540 nM.

Still in this test, the particulars now being: Acinetobacter baumannii, ATCC17961, 16 h, read-out: ATCC 17961 IC90, Acinetobacter baumannii ATCC17961; Iso-Sensitest broth; growth by OD 600 nm over 16 h; 35±2° C.
As to `COc1ccc(-c2cnc(C(=O)Nc3ccc(C(=O)N4CCN(C(=O)[C@@H]5[C@@H](O)CC[N+]5(C)C)CC4)c(Cl)c3)n2C)c(F)c1F` [Example B36, N-[3-chloro-4-[4-[(2S,3S)-3-hydroxy-1,1-dimethyl-pyrrolidin-1-ium-2-carbonyl]piperazine-1-carbonyl]phenyl]-5-(2,3-difluoro-4-methoxy-phenyl)-1-methyl-imidazole-2-carboxamide; formate], the IC90 was determined as 220 nM.

As for `COc1ccc(-c2cnc(C(=O)Nc3ccc(C(=O)N4CCN(C(=O)C5CC[N+](CC(=O)O)(CC6CNC6)CC5)CC4)c(Cl)c3)n2C)c(F)c1F` (stereo not shown) [Example C33, 2-[1-(azetidin-3-ylmethyl)-4-[4-[2-chloro-4-[[5-(2,3-difluoro-4-methoxy-phenyl)-1-methyl-imidazole-2-carbonyl]amino]benzoyl]piperazine-1-carbonyl]piperidin-1-ium-1-yl]acetic acid; formate], the IC90 is 490 nM. Same read-out and setting: as for `COc1ccc(-c2cnc(C(=O)Nc3ccc(C(=O)N4CCN(C(=O)CCC[N+](C)(CCCN)CC(=O)O)CC4)c(Cl)c3)n2C)c(F)c1F` (stereo not shown) [Example C35, 3-aminopropyl-(carboxymethyl)-[4-[4-[2-chloro-4-[[5-(2,3-difluoro-4-methoxy-phenyl)-1-methyl-imidazole-2-carbonyl]amino]beuzoyl]piperazin-1-yl]-4-oxo-butyl]-methyl-ammonium formate], the figure is 510 nM.
